Results as given in publication PMC9569971, “New Oxazolo[5,4-d]pyrimidines as Potential Anticancer Agents: Their Design, Synthesis, and In Vitro Biological Activity Research” (International Journal of Molecular Sciences, 2022).
“Also recorded” adds a separate entry of the source. Where two headings read alike, the source gives them in different places.

How the values were obtained:
[1] = MTT viability assay, L929; assay type: cell-based, murine; conditions: mouse, L929 fibroblasts, tested 1–500 µM
Procedure: (§1) When the confluence was greater than 70%, adherent cell lines were detached from the bottle surface with a TrypLE solution and then used in assays or reduced. The cells were collected into centrifuge tubes and centrifuged at 1000× g for 5 min at room temperature. The supernatant was removed to dry. The cell pellets were then resuspended in an appropriate medium. The cells were counted using a Bürker chamber and resuspended in 96-well plates to a cell density of 10,000 cells per well for MTT assay. For the rhodamine accumulation test and the detection of apoptosis assay, cells were seeded at a density of 30,000 per well. In the migration assay, cells were seeded at a density of 20,000 per well, and monolayer formation was awaited.
(§2) In this study, normal human dermal fibroblasts (NHDFs), breast cancer cells (MCF7), human lung adenocarcinoma cells (A549), murine fibroblasts (L929), colon adenocarcinoma cells (HT29), and colorectal adenocarcinoma cells (LoVo) were used. All cell lines were cultured in the recommended media. […] The human lung adenocarcinoma cell line A549 and breast cancer cell line MCF-7 were obtained from the ECACC. These cell lines were cultured in Eagle’s minimal essential medium (MEM). Murine fibroblast L929 (Sigma-Aldrich, Merck Group, Headquarters, Darmstadt, Germany; the European Collection of Authenticated Cell Cultures—ECACC) cells were grown in DMEM. […] All media were supplemented with 10% FBS and 100 µg/mL of penicillin–streptomycin.
(§3) All compounds were dissolved in DMSO and the reference drugs were dissolved in physiological saline to concentrations of 10 mM. Concentrations from 1 to 500 μM in the media recommended for the cell lines were prepared for the tests.
(§4) All of the synthesized derivatives were evaluated via the MTT assay. All cell lines were seeded into 96-well plates at a density of 10,000 cells per well. To allow the cells to adhere to the surface of the plates, they were incubated overnight before the application of the test compounds. […] The tests were performed for concentrations of 1, 5, 10, 25, 50, 100, 250, and 500 μM. The solutions of the test compounds were removed from the culture on the 96-well plates. […] The supernatant was then removed. The violet crystal was dissolved in isopropanol for 30 min by shaking. Absorbance was measured at 570 nm.
(§5) Biological assays were performed in three independent replicates, and each replicate used four samples. Three repetitions were made for the ELISA determinations. For the assessment of cytotoxicity, mathematical models were developed using the GraphPad PRISM software, based on which CC50 was determined. The values of CC50 were estimated based on nonlinear regression using the dependence of the biological effect on the molar concentrations of the compounds (four-parameter logistic model with Hill slope).

[2] = MTT viability assay, NHDF; assay type: cell-based, human; conditions: human, normal human dermal fibroblasts (NHDF), tested 1–500 µM
Procedure: as §1, §2, §3, §4, §5

[3] = system: lung adenocarcinoma (A549); assay: MTT viability assay, A549; assay type: cell-based, human; conditions: for SI (selectivity index): CC50 NHDF / CC50 A549; for CC50: Homo sapiens
Procedure: as §1, §2, §3, §4, §5

[4] = system: breast adenocarcinoma (MCF7); assay: MTT viability assay, MCF7; assay type: cell-based, human; conditions: for SI (selectivity index): CC50 NHDF / CC50 MCF7; for CC50: Homo sapiens, MCF7, MTT, tested 1–500 µM
Procedure: as §1, §2, §3, §4, §5

[5] = system: primary colon adenocarcinoma (HT29); assay: MTT viability assay, HT29; assay type: cell-based, human; conditions: for SI (selectivity index): CC50 NHDF / CC50 HT29; for CC50: tested 1–500 µM
Procedure: as §1, §2, §3, §4, §5

[6] = system: metastatic colon adenocarcinoma (LoVo); assay: MTT viability assay, LoVo; assay type: cell-based, human; conditions: for SI (selectivity index): CC50 NHDF / CC50 LoVo; for CC50: Homo sapiens, LoVo, MTT, tested 1–500 µM
Procedure: as §1, §2, §3, §4, §5

[7] = system: HT29 primary colon adenocarcinoma cells; assay: Detection of apoptosis (Annexin V FITC / propidium iodide); assay type: cell-based, human; set-up: unit not given here; conditions: 24 h
Procedure: as §1, with “All cell lines were grown in 5% CO2 at 95% humidity and 37 °C, with both morphology and confluence assessed twice per week. When” for “When”
HT29 primary colon adenocarcinoma cells were grown in 96-well plates for 24 h. The 5 selected derivatives were added at concentrations of 1, 2, 5, and 10 µM, and then incubated for 24 h. The mixture of Annexin V conjugated with fluorescein and propidium iodide in PBS with Mg^2+ and Ca^2+ ions (Thermo Fisher Scientific, Waltham, MA, USA) was then applied. The incubation lasted 20 min at 37 °C. Pictures were taken using a fluorescence microscope. Thirteen images were taken from each well using an EVOS FL fluorescence microscope, with three replications for each compound. The open ImageJ space was used to analyze the number of cells. The Thermo Fisher Dead Cell Apoptosis Kit with Annexin V FITC and Propidium Iodide (PI) detects phosphatidylserine extrusion in apoptotic cells using Annexin V conjugated with a green fluorescent FITC dye and dead cells stained by PI with red fluorescence.

[8] = system: normal human dermal fibroblasts (NHDF); assay: MTT viability assay, NHDF; assay type: cell-based; conditions: tested 1–500 µM
Procedure: as §1, §2, §3, §4, §5

HT29 cells = assay: Migration (scratch) assay; assay type: cell-based, human; conditions: control T 155558.2, control T0 544366.45
Procedure: The scratch test was performed to verify that the tested compound 3g could inhibit the formation of metastases by the HT29 cell line. The seeded HT29 cells were incubated until they formed a monolayer over the entire surface of the well. Then, a scratch test was performed by making a scratch in the monolayer and measuring its width—that is, To, amounting to 544,366.45 μm^2. Freshly prepared compounds were added to the HT29 cells at concentrations of 10, 25, 50, and 100 μM. Breeding plates were incubated for 24 h. The next day, scratch width was measured again using the ImageJ open-source platform. […] The lowest cellular overgrowth of HT29 culture occurred at the concentration of 100 μM for the compound. Compound 3g inhibited the migration of HT29 cells more strongly than the reference drugs, showing that it has the potential to inhibit metastasis. The width of the scratch after 24 h when no compound was applied to the cells was used as a control (T = 155,558.2 μm^2).
as §1, with “All cell lines were grown in 5% CO2 at 95% humidity and 37 °C, with both morphology and confluence assessed twice per week. When” for “When”
After seeding, HT29 cells were incubated until they formed a monolayer over the entire surface of the well. A scratch was made on the surface overgrown with cells, and then photomicrographs of the scratch were taken using the EVOS FL microscope. The freshly prepared compound 3g and the reference drugs were added at concentrations of 10, 25, 50, and 100 µM. Then, they were incubated for 24 h, and micrographs were performed at that time using the EVOS FL microscope. The scratch width was measured using the ImageJ open-source platform. The measurement of scratch width was also performed after 24 h without adding compounds.

A549 = conditions: cited from earlier work
HT29 = conditions: ref 70; cited from earlier work

| Compound | CC50 [1] | CC50 [2] | SI (selectivity index) [4] | CC50 [4] | SI (selectivity index) [5] | CC50 ([5]; Homo sapiens, HT-29, HT29, MTT) | apoptosis mean ([7]; 1 μM) | late apoptosis mean ([7]; 1 μM) | necrosis mean ([7]; 1 μM) | percent live (viable) cells ([7]; 1 μM) | apoptosis mean ([7]; 2 μM) | late apoptosis mean ([7]; 2 μM) | necrosis mean ([7]; 2 μM) | percent live (viable) cells ([7]; 2 μM) | apoptosis mean ([7]; 5 μM) | late apoptosis mean ([7]; 5 μM) | necrosis mean ([7]; 5 μM) | percent live (viable) cells ([7]; 5 μM) | apoptosis mean ([7]; 10 μM) | late apoptosis mean ([7]; 10 μM) | other results |
| --- | --- | --- | --- | --- | --- | --- | --- | --- | --- | --- | --- | --- | --- | --- | --- | --- | --- | --- | --- | --- | --- |
| CCCNc1ncnc2oc(-c3c(C)noc3N)nc12 [Compound 3c, 2-(5-Amino-3-methylisoxazol-4-yl)-7-N-propylaminooxazolo[5,4-d]pyrimidine] | 90.6 ± 8.75 µM | 172 ± 14.5 µM | 0.862 | 199 ± 16.1 µM | 0.766 | 224 ± 23.1 µM |  |  |  |  |  |  |  |  |  |  |  |  |  |  | CC50 ± SD ([3]; A549, MTT, tested 1–500 µM): no activity; melting point: 220 to 221 °C (dec.) |
| CCCCCNc1ncnc2oc(-c3c(C)noc3N)nc12 [Compound 3e, 2-(5-Amino-3-methylisoxazol-4-yl)-7-N-pentylaminooxazolo[5,4-d]pyrimidine] | 89.2 ± 6.04 µM | 125 ± 11.5 µM | 0.804 | 155 ± 15.5 µM | 0.963 | 129 ± 10 µM | 6.20 | 11.11 | 4.53 | 78.17 | 4.33 | 12.44 | 9.43 | 73.80 | 5.40 | 18.31 | 10.22 | 66.07 | 4.05 | 22.59 | SI (selectivity index) [3]: 0.999; CC50 ([3]; A549, MTT, tested 1–500 µM): 125 ± 12.1 µM; SI (selectivity index) [6]: 0.702; CC50 [6]: 178 ± 6.65 µM; necrosis mean ([7]; 10 μM): 20.74; percent live (viable) cells ([7]; 10 μM): 52.63 |
| Cc1noc(N)c1-c1nc2c(NCCN(C)C)ncnc2o1 [Compound 3f, 2-(5-Amino-3-methylisoxazol-4-yl)-7-N-[2-(N,N-dimethylamino)ethyl]aminooxazolo[5,4-d]pyrimidine] | 207 ± 16.5 µM | 172 ± 20.7 µM | 0.881 | 195 ± 12 µM | 1.124 | 153 ± 15 µM | 7.07 | 3.15 | 0.16 | 89.62 | 3.08 | 7.34 | 5.76 | 83.82 | 6.76 | 12.74 | 5.73 | 74.77 | 18.64 | 6.51 | SI (selectivity index) [3]: 1.161; CC50 ([3]; A549, MTT, tested 1–500 µM): 148 ± 13.8 µM; SI (selectivity index) [6]: 0.729; CC50 [6]: 235 ± 13 µM; necrosis mean ([7]; 10 μM): 2.78; percent live (viable) cells ([7]; 10 μM): 72.06 |
| Cc1noc(N)c1-c1nc2c(NCCN3CCOCC3)ncnc2o1 [Compound 3j, 2-(5-Amino-3-methylisoxazol-4-yl)-7-N-[2-(morpholin-4-yl)ethyl]aminooxazolo[5,4-d]pyrimidine] | 52.9 ± 9.51 µM |  | >>1 | 197 ± 13.1 µM | >>1 | 99.9 ± 10.9 µM | 5.45 | 29.25 | 8.01 | 57.30 | 8.18 | 26.44 | 3.92 | 61.47 | 8.28 | 30.59 | 3.45 | 57.69 | 1.34 | 13.55 | CC50 ± SD [8]: no toxicity at all; also recorded: Non-toxic; necrosis mean ([7]; 10 μM): 32.35; percent live (viable) cells ([7]; 10 μM): 52.76 |
| O=c1[nH]cc(F)c(=O)[nH]1 [Compound 5-FU, 5-fluorouracil, reference compound] | 38.1 ± 7.13 µM | 20.4 ± 2.97 µM | 0.094 | 217 ± 20 µM | 0.053 | 381 µM | 7.92 | 31.72 | 10.48 | 59.77 | 10.65 | 28.91 | 8.86 | 63.94 | 10.75 | 33.06 | 8.39 | 60.16 | 3.81 | 16.02 | SI (selectivity index) [3]: 0.076; CC50 ([3]; A549, MTT, tested 1–500 µM): 269 ± 17.2 µM; SI (selectivity index) [6]: 0.282; CC50 ([5]; HT29, MTT): 381 ± 25.5 µM; necrosis mean ([7]; 10 μM): 34.82; percent live (viable) cells ([7]; 10 μM): 55.23; scratch width after 24 h, mean (HT29 cells; 10 μM): 155098.248 μm^2; scratch width after 24 h, mean (HT29 cells; 25 μM): 192391.405 μm^2; scratch width after 24 h, mean (HT29 cells; 50 μM): 198312.887 μm^2; scratch width after 24 h, mean (HT29 cells; 100 μM): 282974.4 μm^2 |
| COc1cc2nccc(Oc3ccc(NC(=O)NC4CC4)c(Cl)c3)c2cc1C(N)=O [Lenvatinib] |  |  |  |  |  |  |  |  |  |  |  |  |  |  |  |  |  |  |  |  | IC50 (A549; listed as lenvatinib): almost no effect; IC50 (A549; ref 69): No effect ^f; IC50 (HT29): 431 µM |
